Measurements from ChEMBL document CHEMBL3352787, “Lipid-lowering effects of farnesylquinone and related analogues from the marine-derived Streptomyces nitrosporeus” (Bioorg Med Chem Lett, 2014).
One block for each molecule: values may come before it. Activity calls are given as the source filed them. The rule behind the calls is not given here.

Key:
HepG2 [1] = test: Increase in CPT1 protein expression in human HepG2 cells at 1 to 10 uM by Western blotting method; type: functional, cell-based
HepG2 [2] = test: Lipid-lowering effect in human HepG2 cells assessed as reduction in oleic acid-induced triglyceride accumulation at 1 and 10 uM after 24 hrs by oil-red O staining based spectrophotometry; type: functional, cell-based
HepG2 [3] = test: Increase in CPT1 gene expression in human HepG2 cells at 1 uM by quantitative real time PCR method; type: functional, cell-based
HepG2 [4] = test: Inhibition of ACC gene expression in human HepG2 cells at 1 uM by quantitative real time PCR method; type: functional, cell-based
HepG2 [5] = test: Increase in CYP7A1 gene expression in human HepG2 cells at 1 uM by quantitative real time PCR method; type: functional, cell-based
HepG2 [6] = test: Inhibition of FAS gene expression in human HepG2 cells at 1 uM by quantitative real time PCR method; type: functional, cell-based
HepG2 [7] = test: Lipid-lowering effect in human HepG2 cells assessed as reduction in oleic acid-induced total cholesterol accumulation at 1 and 10 uM after 24 hrs by oil-red O staining based spectrophotometry; type: functional, cell-based
HepG2 [8] = test: Lipid-lowering effect in human HepG2 cells assessed as reduction in oleic acid-induced triglyceride accumulation at 10 uM in presence of 10 uM PPARalpha antagonist MK886 by oil-red O staining based spectrophotometry; type: functional, cell-based
HepG2 [9] = test: Inhibition of HMGCR gene expression in human HepG2 cells at 1 uM by quantitative real time PCR method; type: functional, cell-based
HepG2 [10] = test: Increase in PDK4 gene expression in human HepG2 cells at 1 uM by quantitative real time PCR method; type: functional, cell-based
HepG2 [11] = test: Lipid-lowering effect in human HepG2 cells assessed as reduction in oleic acid-induced neutral lipid accumulation at 1 and 10 uM after 24 hrs by oil-red O staining based spectrophotometry; type: functional, cell-based
HepG2 [12] = test: Increase in PGC-1alpha protein expression in human HepG2 cells at 1 to 10 uM by Western blotting method; type: functional, cell-based
HepG2 [13] = test: Increase in ACOX1 gene expression in human HepG2 cells at 1 uM by quantitative real time PCR method; type: functional, cell-based
HepG2 [14] = test: Increase in PPARalpha gene expression in human HepG2 cells at 1 uM by quantitative real time PCR method; type: functional, cell-based
HepG2 [15] = test: Increase in PPARalpha protein expression in human HepG2 cells at 1 to 10 uM by Western blotting method; type: functional, cell-based
HepG2 [16] = test: Lipid-lowering effect in human HepG2 cells assessed as reduction in oleic acid-induced total cholesterol accumulation at 10 uM in presence of 10 uM PPARalpha antagonist MK886 by oil-red O staining based spectrophotometry; type: functional, cell-based
[17] = target: T1, Peroxisome proliferator-activated receptor alpha (Homo sapiens) (UniProt Q07869); test: Activation of PPARalpha transactivation in human HepG2 cells assessed as increase in transcriptional activity at 0.1 to 10 uM by luciferase reporter gene assay; type: cell-based
T1 sequence (whole entry): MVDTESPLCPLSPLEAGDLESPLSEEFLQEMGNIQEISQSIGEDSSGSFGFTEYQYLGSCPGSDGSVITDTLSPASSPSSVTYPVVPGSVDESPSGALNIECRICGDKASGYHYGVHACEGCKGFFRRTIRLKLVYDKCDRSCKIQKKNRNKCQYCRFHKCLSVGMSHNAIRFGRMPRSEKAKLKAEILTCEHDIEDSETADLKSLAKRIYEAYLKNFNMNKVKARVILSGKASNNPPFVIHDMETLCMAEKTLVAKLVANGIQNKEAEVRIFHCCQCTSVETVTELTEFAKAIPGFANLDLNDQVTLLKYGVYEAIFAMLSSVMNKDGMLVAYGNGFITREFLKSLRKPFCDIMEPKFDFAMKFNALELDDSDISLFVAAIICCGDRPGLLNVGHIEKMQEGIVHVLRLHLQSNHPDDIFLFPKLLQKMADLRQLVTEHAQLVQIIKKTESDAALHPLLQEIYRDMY

HepG2 [18] = test: Effect on FAS protein expression in human HepG2 cells at 1 to 10 uM by Western blotting method; type: functional, cell-based
HepG2 [19] = test: Increase in MCD1 gene expression in human HepG2 cells at 1 uM by quantitative real time PCR method; type: functional, cell-based
HepG2 [20] = test: Lipid-lowering effect in human HepG2 cells assessed as reduction in oleic acid-induced lipid accumulation at 1 uM after 6 hrs by oil-red O staining based spectrophotometry; type: functional, cell-based
HepG2 [21] = test: Lipid-lowering effect in human HepG2 cells assessed as reduction in oleic acid-induced total cholesterol accumulation at 10 uM after 24 hrs by oil-red O staining based spectrophotometry; type: functional, cell-based
HepG2 [22] = test: Lipid-lowering effect in human HepG2 cells assessed as reduction in oleic acid-induced triglyceride accumulation at 10 uM after 24 hrs by oil-red O staining based spectrophotometry; type: functional, cell-based

- Activity [17]: Dose-dependent effect
Compound: CC(C)=CCC/C(C)=C/CC/C(C)=C/CC1=CC(=O)C(C)=CC1=O
- Activity (HepG2 [1]): Active
- inhibition (HepG2 [2]): Dose-dependent effect
- Activity (HepG2 [3]): Active
- inhibition (HepG2 [4]): inactive
- Activity (HepG2 [5]): Active
- inhibition (HepG2 [6]): inactive
- inhibition (HepG2 [7]): Dose-dependent effect
- inhibition (HepG2 [8]): inactive
- inhibition (HepG2 [9]): inactive
- Activity (HepG2 [10]): Active
- inhibition (HepG2 [11]): Dose-dependent effect
- Activity (HepG2 [12]): Active
- Activity (HepG2 [13]): Active
- Activity (HepG2 [14]): Active
- Activity (HepG2 [15]): Active
- inhibition (HepG2 [16]): inactive
- Activity (HepG2 [18]): inactive
- Activity (HepG2 [19]): Active
- inhibition (HepG2 [20]): Active

Compound: O=C(O)CCCCC[C@H](O)c1ccccc1CO
- inhibition (HepG2 [20]): Active

Compound: COC(=O)CC/C=C/c1ccccc1CO
- inhibition (HepG2 [20]): inactive

Compound: O=C(O)CC/C=C/c1ccccc1CO
- inhibition (HepG2 [20]): inactive

Compound: CC[C@H](C)C(=O)O[C@H]1C[C@@H](C)C=C2C=C[C@H](C)[C@H](CC[C@@H]3C[C@@H](O)CC(=O)O3)[C@H]21
- inhibition (HepG2 [21]): Active
- inhibition (HepG2 [22]): Active
- inhibition (HepG2 [20]): Active

Compound: CC(C)=CCC/C(C)=C/CC/C(C)=C/Cc1cc(O)c(C)cc1O
- inhibition (HepG2 [20]): inactive

Compound: O=C(O)C[C@H](O)CCc1ccccc1CO
- inhibition (HepG2 [20]): inactive

Compound: O=C(O)CCCC(=O)c1ccccc1CO
- inhibition (HepG2 [20]): inactive

Compound: O=C(O)/C=C/C=C/c1ccccc1CO
- inhibition (HepG2 [20]): inactive

Compound: O=C(O)CCCCc1ccccc1CO
- inhibition (HepG2 [20]): inactive

Compound: CC(C)=CCC/C(C)=C/CC/C(C)=C/C[C@@]12O[C@@H]1[C@H](O)C(C)=CC2=O
- inhibition (HepG2 [20]): inactive
